# Measured values from patent US8653041B2, “Antibacterial aminoglycoside analogs” (Achaogen, Inc., priority 2010, dated 2014).
# Like-named read-outs stand apart in the source and are kept apart here.
# Legend:
# Pseudomonas aeruginosa = assay: MIC, CLSI broth microdilution, Pseudomonas aeruginosa panel; type: cell-based
# Protocol: (§1) Minimum inhibitory concentrations (MIC) were determined by reference Clinical and Laboratory Standards Institute (CLSI) broth microdilution methods per M7-A7 [2006]. Quality control ranges utilizing E. coli ATCC 25922, P. aeruginosa ATCC 27853 and S. aureus ATCC 29213, and interpretive criteria for comparator agents were as published in CLSI M100-S17 [2007]. Briefly, serial two-fold dilutions of the test compounds were prepared at 2× concentration in Mueller Hinton Broth. The compound dilutions were mixed in 96-well assay plates in a 1:1 ratio with bacterial inoculum. The inoculum was prepared by suspension of a colony from an agar plate that was prepared the previous day. Bacteria were suspended in sterile saline and added to each assay plate to obtain a final concentration of 5×10^5 CFU/mL. The plates were incubated at 35 C for 20 hours in ambient air.
# The MIC panel presented in Table 1 contains 27 isolates of Pseudomonas aeruginosa: strains 1-22 are clinical isolates from around the world collected between 2004-2007 which contain representative resistance mechanisms commonly found in Pseudomonas, such as the AAC(6′)-I, AAC(6′)-II, APH(3′)-IIb, ANT(2″)-I, and perm/efflux; strains 23-27 are susceptible.
# Acinetobacter baumannii = assay: MIC, CLSI broth microdilution, Acinetobacter baumannii panel; type: cell-based; conditions: Acinetobacter baumannii, read-out: MIC
# Protocol: as §1
# The MIC panel presented in Table 2 contains 29 isolates of Acinetobacter baumannii: strains 1-24 are clinical isolates from around the world collected between 2004-2007 which contain representative resistance mechanisms commonly found in Acinetobacter baumannii, such as AAC(3)-I and II, AAC(6′)-I, ANT(2″)-I, APH(3′)-VI, and perm/efflux; strains 25-29 are susceptible.
smiles,measurement,setting,value
"NCC[C@H](O)C(=O)N[C@@H]1C[C@H](N)[C@@H](O[C@H]2O[C@H](CN)[C@@H](O)[C@H](O)[C@H]2O)[C@H](O)[C@H]1O[C@H]1O[C@H](CO)[C@@H](O)[C@H](N)[C@H]1O [AMK, amikacin]",MIC,"Pseudomonas aeruginosa; Pseudomonas aeruginosa, P. aeruginosa clinical strain 1 (resistant clinical isolate), read-out: MIC",≥ 32 µg/mL
same,MIC,"Pseudomonas aeruginosa; Pseudomonas aeruginosa, P. aeruginosa clinical strain 2 (resistant clinical isolate), read-out: MIC",≥ 32 µg/mL
same,MIC,"Pseudomonas aeruginosa; Pseudomonas aeruginosa, P. aeruginosa clinical strain 3 (resistant clinical isolate), read-out: MIC",≥ 32 µg/mL
same,MIC,"Pseudomonas aeruginosa; Pseudomonas aeruginosa, P. aeruginosa clinical strain 4 (resistant clinical isolate), read-out: MIC",≥ 32 µg/mL
same,MIC,"Pseudomonas aeruginosa; Pseudomonas aeruginosa, P. aeruginosa clinical strain 5 (resistant clinical isolate), read-out: MIC",≥ 32 µg/mL
same,MIC,"Pseudomonas aeruginosa; Pseudomonas aeruginosa, P. aeruginosa clinical strain 6 (resistant clinical isolate), read-out: MIC",8 to 16 µg/mL
same,MIC,"Pseudomonas aeruginosa; Pseudomonas aeruginosa, P. aeruginosa clinical strain 7 (resistant clinical isolate), read-out: MIC",1 to 8 µg/mL
same,MIC,"Pseudomonas aeruginosa; Pseudomonas aeruginosa, P. aeruginosa clinical strain 8 (resistant clinical isolate), read-out: MIC",16 to 32 µg/mL
same,MIC,"Pseudomonas aeruginosa; Pseudomonas aeruginosa, P. aeruginosa clinical strain 9 (resistant clinical isolate), read-out: MIC",8 to 16 µg/mL
same,MIC,"Pseudomonas aeruginosa; Pseudomonas aeruginosa, P. aeruginosa clinical strain 10 (resistant clinical isolate), read-out: MIC",16 to 32 µg/mL
same,MIC,"Pseudomonas aeruginosa; Pseudomonas aeruginosa, P. aeruginosa clinical strain 11 (resistant clinical isolate), read-out: MIC",≤ 1 µg/mL
same,MIC,"Pseudomonas aeruginosa; Pseudomonas aeruginosa, P. aeruginosa clinical strain 12 (resistant clinical isolate), read-out: MIC",≤ 1 µg/mL
same,MIC,"Pseudomonas aeruginosa; Pseudomonas aeruginosa, P. aeruginosa clinical strain 13 (resistant clinical isolate), read-out: MIC",1 to 8 µg/mL
same,MIC,"Pseudomonas aeruginosa; Pseudomonas aeruginosa, P. aeruginosa clinical strain 14 (resistant clinical isolate), read-out: MIC",1 to 8 µg/mL
same,MIC,"Pseudomonas aeruginosa; Pseudomonas aeruginosa, P. aeruginosa clinical strain 15 (resistant clinical isolate), read-out: MIC",8 to 16 µg/mL
same,MIC,"Pseudomonas aeruginosa; Pseudomonas aeruginosa, P. aeruginosa clinical strain 16 (resistant clinical isolate), read-out: MIC",≥ 32 µg/mL
same,MIC,"Pseudomonas aeruginosa; Pseudomonas aeruginosa, P. aeruginosa clinical strain 17 (resistant clinical isolate), read-out: MIC",≥ 32 µg/mL
same,MIC,"Pseudomonas aeruginosa; Pseudomonas aeruginosa, P. aeruginosa clinical strain 18 (resistant clinical isolate), read-out: MIC",≥ 32 µg/mL
same,MIC,"Pseudomonas aeruginosa; Pseudomonas aeruginosa, P. aeruginosa clinical strain 19 (resistant clinical isolate), read-out: MIC",≥ 32 µg/mL
same,MIC,"Pseudomonas aeruginosa; Pseudomonas aeruginosa, P. aeruginosa clinical strain 20 (resistant clinical isolate), read-out: MIC",≥ 32 µg/mL
same,MIC,"Pseudomonas aeruginosa; Pseudomonas aeruginosa, P. aeruginosa clinical strain 21 (resistant clinical isolate), read-out: MIC",16 to 32 µg/mL
same,MIC,"Pseudomonas aeruginosa; Pseudomonas aeruginosa, P. aeruginosa clinical strain 22 (resistant clinical isolate), read-out: MIC",16 to 32 µg/mL
same,MIC,"Pseudomonas aeruginosa; Pseudomonas aeruginosa, P. aeruginosa strain 23 (susceptible), read-out: MIC",1 to 8 µg/mL
same,MIC,"Pseudomonas aeruginosa; Pseudomonas aeruginosa, P. aeruginosa strain 24 (susceptible), read-out: MIC",1 to 8 µg/mL
same,MIC,"Pseudomonas aeruginosa; Pseudomonas aeruginosa, P. aeruginosa strain 25 (susceptible), read-out: MIC",1 to 8 µg/mL
same,MIC,"Pseudomonas aeruginosa; Pseudomonas aeruginosa, P. aeruginosa strain 26 (susceptible), read-out: MIC",1 to 8 µg/mL
same,MIC,"Pseudomonas aeruginosa; Pseudomonas aeruginosa, P. aeruginosa strain 27 (susceptible), read-out: MIC",≤ 1 µg/mL
same,MIC,Acinetobacter baumannii; A. baumannii clinical strain 1 (resistant clinical isolate),≥ 32 µg/mL
same,MIC,Acinetobacter baumannii; A. baumannii clinical strain 2 (resistant clinical isolate),≥ 32 µg/mL
same,MIC,Acinetobacter baumannii; A. baumannii clinical strain 3 (resistant clinical isolate),8 to 16 µg/mL
same,MIC,Acinetobacter baumannii; A. baumannii clinical strain 4 (resistant clinical isolate),16 to 32 µg/mL
same,MIC,Acinetobacter baumannii; A. baumannii clinical strain 5 (resistant clinical isolate),≥ 32 µg/mL
same,MIC,Acinetobacter baumannii; A. baumannii clinical strain 6 (resistant clinical isolate),≥ 32 µg/mL
same,MIC,Acinetobacter baumannii; A. baumannii clinical strain 7 (resistant clinical isolate),≥ 32 µg/mL
same,MIC,Acinetobacter baumannii; A. baumannii clinical strain 8 (resistant clinical isolate),≥ 32 µg/mL
same,MIC,Acinetobacter baumannii; A. baumannii clinical strain 9 (resistant clinical isolate),1 to 8 µg/mL
same,MIC,Acinetobacter baumannii; A. baumannii clinical strain 10 (resistant clinical isolate),1 to 8 µg/mL
same,MIC,Acinetobacter baumannii; A. baumannii clinical strain 11 (resistant clinical isolate),≥ 32 µg/mL
same,MIC,Acinetobacter baumannii; A. baumannii clinical strain 12 (resistant clinical isolate),≥ 32 µg/mL
same,MIC,Acinetobacter baumannii; A. baumannii clinical strain 13 (resistant clinical isolate),≥ 32 µg/mL
same,MIC,Acinetobacter baumannii; A. baumannii clinical strain 14 (resistant clinical isolate),≥ 32 µg/mL
same,MIC,Acinetobacter baumannii; A. baumannii clinical strain 15 (resistant clinical isolate),≥ 32 µg/mL
same,MIC,Acinetobacter baumannii; A. baumannii clinical strain 16 (resistant clinical isolate),≥ 32 µg/mL
same,MIC,Acinetobacter baumannii; A. baumannii clinical strain 17 (resistant clinical isolate),≥ 32 µg/mL
same,MIC,Acinetobacter baumannii; A. baumannii clinical strain 18 (resistant clinical isolate),≥ 32 µg/mL
same,MIC,Acinetobacter baumannii; A. baumannii clinical strain 19 (resistant clinical isolate),1 to 8 µg/mL
same,MIC,Acinetobacter baumannii; A. baumannii clinical strain 20 (resistant clinical isolate),1 to 8 µg/mL
same,MIC,Acinetobacter baumannii; A. baumannii clinical strain 21 (resistant clinical isolate),≥ 32 µg/mL
same,MIC,Acinetobacter baumannii; A. baumannii clinical strain 22 (resistant clinical isolate),≥ 32 µg/mL
same,MIC,Acinetobacter baumannii; A. baumannii clinical strain 23 (resistant clinical isolate),≥ 32 µg/mL
same,MIC,Acinetobacter baumannii; A. baumannii clinical strain 24 (resistant clinical isolate),≥ 32 µg/mL
same,MIC,Acinetobacter baumannii; A. baumannii strain 25 (susceptible),≤ 1 µg/mL
same,MIC,Acinetobacter baumannii; A. baumannii strain 26 (susceptible),1 to 8 µg/mL
same,MIC,Acinetobacter baumannii; A. baumannii strain 27 (susceptible),1 to 8 µg/mL
same,MIC,Acinetobacter baumannii; A. baumannii strain 28 (susceptible),1 to 8 µg/mL
same,MIC,Acinetobacter baumannii; A. baumannii strain 29 (susceptible),≤ 1 µg/mL
"NC[C@@H]1O[C@H](O[C@H]2[C@@H](O)[C@H](O[C@@H]3[C@@H](O)[C@H](N)C[C@H](N)[C@H]3O[C@H]3O[C@H](CN)[C@@H](O)[C@H](O)[C@H]3N)O[C@@H]2CO)[C@H](N)[C@@H](O)[C@@H]1O [Neo B, neomycin B]",MIC,Pseudomonas aeruginosa; P. aeruginosa clinical strain 1 (resistant clinical isolate),E (MIC's greater than or equal to 32.0 μg/mL = E)
same,MIC,Pseudomonas aeruginosa; P. aeruginosa clinical strain 2 (resistant clinical isolate),D (MIC's greater than or equal to 16.0 μg/mL and lower than 32 μg/mL = D)
same,MIC,Pseudomonas aeruginosa; P. aeruginosa clinical strain 3 (resistant clinical isolate),E (MIC's greater than or equal to 32.0 μg/mL = E)
same,MIC,Pseudomonas aeruginosa; P. aeruginosa clinical strain 4 (resistant clinical isolate),E (MIC's greater than or equal to 32.0 μg/mL = E)
same,MIC,Pseudomonas aeruginosa; P. aeruginosa clinical strain 5 (resistant clinical isolate),E (MIC's greater than or equal to 32.0 μg/mL = E)
same,MIC,Pseudomonas aeruginosa; P. aeruginosa clinical strain 6 (resistant clinical isolate),D (MIC's greater than or equal to 16.0 μg/mL and lower than 32 μg/mL = D)
same,MIC,Pseudomonas aeruginosa; P. aeruginosa clinical strain 7 (resistant clinical isolate),C (MIC's greater than or equal to 8 μg/mL and lower than 16.0 μg/mL = C)
same,MIC,Pseudomonas aeruginosa; P. aeruginosa clinical strain 8 (resistant clinical isolate),E (MIC's greater than or equal to 32.0 μg/mL = E)
same,MIC,Pseudomonas aeruginosa; P. aeruginosa clinical strain 9 (resistant clinical isolate),D (MIC's greater than or equal to 16.0 μg/mL and lower than 32 μg/mL = D)
same,MIC,Pseudomonas aeruginosa; P. aeruginosa clinical strain 10 (resistant clinical isolate),E (MIC's greater than or equal to 32.0 μg/mL = E)
same,MIC,Pseudomonas aeruginosa; P. aeruginosa clinical strain 11 (resistant clinical isolate),B (MIC's of greater than 1.0 μg/mL and lower than 8 μg/mL = B)
same,MIC,Pseudomonas aeruginosa; P. aeruginosa clinical strain 12 (resistant clinical isolate),E (MIC's greater than or equal to 32.0 μg/mL = E)
same,MIC,Pseudomonas aeruginosa; P. aeruginosa clinical strain 13 (resistant clinical isolate),E (MIC's greater than or equal to 32.0 μg/mL = E)
same,MIC,Pseudomonas aeruginosa; P. aeruginosa clinical strain 14 (resistant clinical isolate),E (MIC's greater than or equal to 32.0 μg/mL = E)
same,MIC,Pseudomonas aeruginosa; P. aeruginosa clinical strain 15 (resistant clinical isolate),E (MIC's greater than or equal to 32.0 μg/mL = E)
same,MIC,Pseudomonas aeruginosa; P. aeruginosa clinical strain 16 (resistant clinical isolate),E (MIC's greater than or equal to 32.0 μg/mL = E)
same,MIC,Pseudomonas aeruginosa; P. aeruginosa clinical strain 17 (resistant clinical isolate),C (MIC's greater than or equal to 8 μg/mL and lower than 16.0 μg/mL = C)
same,MIC,Pseudomonas aeruginosa; P. aeruginosa clinical strain 18 (resistant clinical isolate),E (MIC's greater than or equal to 32.0 μg/mL = E)
same,MIC,Pseudomonas aeruginosa; P. aeruginosa clinical strain 19 (resistant clinical isolate),E (MIC's greater than or equal to 32.0 μg/mL = E)
same,MIC,Pseudomonas aeruginosa; P. aeruginosa clinical strain 20 (resistant clinical isolate),E (MIC's greater than or equal to 32.0 μg/mL = E)
same,MIC,Pseudomonas aeruginosa; P. aeruginosa clinical strain 21 (resistant clinical isolate),E (MIC's greater than or equal to 32.0 μg/mL = E)
same,MIC,Pseudomonas aeruginosa; P. aeruginosa clinical strain 22 (resistant clinical isolate),E (MIC's greater than or equal to 32.0 μg/mL = E)
same,MIC,Pseudomonas aeruginosa; P. aeruginosa strain 23 (susceptible),B (MIC's of greater than 1.0 μg/mL and lower than 8 μg/mL = B)
same,MIC,Pseudomonas aeruginosa; P. aeruginosa strain 24 (susceptible),B (MIC's of greater than 1.0 μg/mL and lower than 8 μg/mL = B)
same,MIC,Pseudomonas aeruginosa; P. aeruginosa strain 25 (susceptible),B (MIC's of greater than 1.0 μg/mL and lower than 8 μg/mL = B)
same,MIC,Pseudomonas aeruginosa; P. aeruginosa strain 26 (susceptible),C (MIC's greater than or equal to 8 μg/mL and lower than 16.0 μg/mL = C)
same,MIC,Pseudomonas aeruginosa; P. aeruginosa strain 27 (susceptible),B (MIC's of greater than 1.0 μg/mL and lower than 8 μg/mL = B)
